Measured values: patent publication US8084424B2, “Compositions and methods related to erythropoietin” (University of Utah Research Foundation, priority 2003, dated 2011)
Where a SMILES comes first, the peptide text is derived from it. [ ]: non-standard residue; d: D form. The star is where a group is joined. Sta = CC(C)C[C@H](N)[C@@H](O)CC(=O)O; Isovaleryl = CC(C)CC(=O)*

What was measured:
proteases = assay: Protease inhibitor test: EPO degradation in concentrated medium at pH5.0, assayed by RIA; format: biochemical; settings: pH5.0, 37° C.
Description: Protease inhibitors can also be added to the conditioned medium in order to improve EPO yields. Several commercially available protease inhibitors were tested to see if they could prevent EPO degradation at pH5.0. 10× concentrated (Step 1) EPO medium was diluted 1:10 in 50 mM Na Acetate, pH5.0 and then incubated at 37° C. with or without protease inhibitors at a concentration of 5 micrograms/ml. Aliquots were taken over a period of 29 hours and assayed by RIA. […] Pepstatin was then tested to determine the minimum concentration at which it is effective. Under the same conditions as described above, pepstatin was included into 10× concentrated medium over range of 0.0005 to 1 ug/ml and incubated at 37° C. for 25 hours. […] To test the effect of pepstatin in the purification process, 0.2 ug/ml of pepstatin was added to the 10× concentrated medium and to the buffers for the S-Sepharose column. Under these conditions, 97% of EPO was recovered from the S-Sepharose Fast Flow column compared to approximately 60% without the use of a protease inhibitor.

[1] = test system: lysosomal enzymes (hexoseaminidase, cathepsin B, acid sphigomyelinase, and sulfatase B); assay: Lysosomal enzyme activities in kidney cortex after injection; format: in vivo, rat; settings: one day after injection, not acid phosphatase
From the text: (§1) The mechanism of Poly-D-Glu-induced acute lysosomal storage condition in proximal tubular cells was addressed.

[2] = 24 hour urine volume and urine osmolality; settings: pre versus post treatment, versus saline
renal cortex = assay: Angiogenesis in the renal cortex; format: in vivo; settings: treated rat kidney
interstitial cells = assay: Interstitial cell proliferation in rat kidney (3H-thymidine histoautoradiography, hematoxylin and eosin staining); format: in vivo
Description: Sprague-Dawley rats of both sexes, weighing from 180 to 200 g, were used throughout the study. A few days before the experiment, rats were adapted to the housing conditions in a central animal facility (regular 12 hours light/dark cycles, free access to standard rat chow and tap water). […] For histoautoradiographic studies, some treated animals and controls were further injected with 300 μCi of [methyl-^3H]-thymidine intraperitoneally 1 hour before their deaths.
One half of the right kidney was immersed in Boulin solution and processed for paraffin sections (approximately 5-μm thickness) destined for histopathologic and/or histoautoradiographic study. For histopathologic use, sections were stained with hematoxylin and eosin with or without periodic acid-Schiff reagent or with Giemsa stain. Histoautoradiographic studies were performed and the data were presented as described earlier (Kishore et al., 1992; Laurent et al., 1983). Briefly each section was examined along parallel straight lines, extending from the subcapsular to the juxtamedullary region. The number of total and labeled nuclei (S-phase cells) were counted, and the corresponding cell type was identified.
Histoautoradiographic labeling indices were subjected to ANOVA, and the significance of the F value was determined. […]

erythropoietin = assay: Immunohistochemical staining of kidney sections for erythropoietin; format: in vivo, rat; settings: for erythropoietin staining of proliferating interstitial cells: 250 mg/kg/day sc for 4 days, euthanized on day 5; for EPO-producing peritubular cells after cessation of treatment: 6 days after the cessation of a 4-day treatment, 250 mg/kg/day
Description: Male Sprague-Dawley rats were divided randomly into two groups. […] Kidneys were harvested quickly from the dead rats and one half of one kidney was immersed in 10% neutral buffered formalin. The formalin fixed kidneys were dehydrated and embedded in paraffin. Sections of 3 to 4 μM thickness were cut on a microtome. Sections were deparaffinized by standard methods and processed for immunohistochemical staining for CD73 (5′-nucleotidase) and erythropoietin (Epo) as described below.
Deparaffinized kidney sections were treated for exposure of antigenic sites and blocked for non-specific binding by standard methods. Following this they were incubated with specific antibodies to CD 73 (marker for resident fibroblasts in kidney) or Epo. Goat polyclonal antibodies to CD73 and Epo were purchased from the Santa Cruz Biotechnology, Santa Cruz, Calif. They were used at a dilution of 1:50. After washing off the unreacted primary antibodies, the sections were incubated with biotinylated anti-goat polyclonal antibody (secondary antibody), followed by incubation with avidin-biotin complex. Sections were then washed and incubated with substrate to visualize the antigen-antibody reactions. Positive labeling in the sections is seen as brownish color. […] Sections were examined under a Reichert Microscope and digital images were captured using a Nikon Coolpix 0995 Digital Camera.

kidney = assay: Renal histology: apoptosis, Trichrome staining for fibrosis, Vimetin immunostaining
From the text: The immunohistochemical methods are standard and routinely used in many research and clinical labs.

[3] = Aggregation and ionisation of Poly-D-glutamic acid in solution; format: physicochemical; settings: 10 mg/ml, solution at pH≦6
From the text: as §1

Molecule | effect on EPO immunoactivity (proteases; 5 micrograms/ml, over 29 hours, RIA) | IC50 (the concentration at which 50% of the proteases are inhibited) (proteases; 10× concentrated medium, 25 hours, range 0.0005 to 1 ug/ml) | activities of several lysosomal enzymes in the kidney cortex [1] | ability of kidneys to concentrate urine as assessed by urine osmolality [2] | angiogenesis in the renal cortex (renal cortex) | significant proliferative response of peritubular cells (3H-thymidine incorporation) (interstitial cells; 7 days after the cessation of treatment, earlier studies) | interstitial cell labeling (3H-thymidine) (interstitial cells; female rats treated for 2 days, versus saline) | erythropoietin staining of proliferating interstitial cells (erythropoietin; listed as Poly-D-Glu) | erythropoietin staining of proliferating interstitial cells (erythropoietin; listed as poly-D-glutamic acid) | EPO-producing peritubular cells after cessation of treatment (erythropoietin) | EPO-producing peritubular cells after cessation of treatment (erythropoietin; listed as Poly-D-Glu) | mesenchymal changes (Vimetin immunostaining) (kidney; rat, in vivo) | fibrotic changes in the kidney (Trichrome staining) (kidney; versus saline) | size of micronic aggregates formed [3] [μm]
CC(C)CC(=O)N[C@H](C(=O)N[C@H](C(=O)N[C@@H](CC(C)C)[C@@H](O)CC(=O)N[C@@H](C)C(=O)N[C@@H](CC(C)C)[C@@H](O)CC(=O)O)C(C)C)C(C)C [Pepstatin] (Isovaleryl-VV[Sta]A[Sta]-OH) | significant stabilizing effect | approximately 0.02 ug/ml |  |  |  |  |  |  |  |  |  |  |  | 
Poly-D-glutamic acid |  |  | increased | does not cause marked abnormalities | angiogenesis | could not be observed | considerably increased | labeled with EPO antibody | strongly stain | persistence | consistent labeling | detectable mesenchymal changes | not much fibrotic reaction | ≥ 10
